Tested on: 282377-053-R-J1-PDC complex spheroid viability
Experiment: Anticancer human tumor 282377-053-R-J1-PDC patient-derived colon adenocarcinoma cell line growth inhibition [POLQ]
Settings: for IC50: curve of first compound; for viability, T/C: stronger effect = lower value
How it was run: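 Patient-derived tumour cells were co-cultured with HUVEC and mesenchymal stem cells as multicellular spheroids at 37 °C. They were treated with POLQ inhibitors (novobiocin, ART-558, RP6685) alone or combined with other agents. Top concentrations were at or near clinical Cmax (otherwise 10 microM; SN-38 at 1 microM), decreasing in half-log steps.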

[1] = second compound 0.0316 µM, first compound 0.0316 µM
[2] = second compound 0.0316 µM, first compound 0.1 µM
[3] = second compound 0.0316 µM, first compound 0.316 µM
[4] = second compound 0.0316 µM, first compound 1 µM
[5] = second compound 0.0316 µM, first compound 3.16 µM
[6] = second compound 0.0316 µM, first compound 10 µM
[7] = second compound 0.1 µM, first compound 0.0316 µM
[8] = second compound 0.1 µM, first compound 0.1 µM
[9] = second compound 0.1 µM, first compound 0.316 µM
[10] = second compound 0.1 µM, first compound 1 µM
[11] = second compound 0.1 µM, first compound 3.16 µM
[12] = second compound 0.1 µM, first compound 10 µM
[13] = second compound 0.316 µM, first compound 0.0316 µM
[14] = second compound 0.316 µM, first compound 0.1 µM
[15] = second compound 0.316 µM, first compound 0.316 µM
[16] = second compound 0.316 µM, first compound 1 µM
[17] = second compound 0.316 µM, first compound 3.16 µM
[18] = second compound 0.316 µM, first compound 10 µM
[19] = second compound 1 µM, first compound 0.0316 µM
[20] = second compound 1 µM, first compound 0.1 µM
[21] = second compound 1 µM, first compound 0.316 µM
[22] = second compound 1 µM, first compound 1 µM
[23] = second compound 1 µM, first compound 3.16 µM
[24] = second compound 1 µM, first compound 10 µM
[25] = second compound 3.16 µM, first compound 0.0316 µM
[26] = second compound 3.16 µM, first compound 0.1 µM
[27] = second compound 3.16 µM, first compound 0.316 µM
[28] = second compound 3.16 µM, first compound 1 µM
[29] = second compound 3.16 µM, first compound 3.16 µM
[30] = second compound 3.16 µM, first compound 10 µM
[31] = second compound 10 µM, first compound 0.0316 µM
[32] = second compound 10 µM, first compound 0.1 µM
[33] = second compound 10 µM, first compound 0.316 µM
[34] = second compound 10 µM, first compound 1 µM
[35] = second compound 10 µM, first compound 3.16 µM
[36] = second compound 10 µM, first compound 10 µM
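Also: spheroids exposed to compounds for seven days.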
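For viability, T/C in this document: 100% = DMSO vehicle control viability.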

## CCc1cc2c(N3CCc4c(cc(Cn5ccnc5)cc4-c4cn(C)nc4C(F)(F)F)C3=O)ccnc2c(OC)n1 + COC1C(OC(N)=O)C(O)C(Oc2ccc3c(O)c(NC(=O)c4ccc(O)c(CC=C(C)C)c4)c(=O)oc3c2C)OC1(C)C
Second compound 0.0316 µM
  IC50: > 10 µM
Second compound 0.1 µM
  IC50: > 10 µM
Second compound 0.316 µM
  IC50: > 10 µM
Second compound 1 µM
  IC50: > 10 µM
Second compound 3.16 µM
  IC50: > 10 µM
Second compound 10 µM
  IC50: > 10 µM
[1]
  viability, T/C: 114%
[2]
  viability, T/C: 132%
[3]
  viability, T/C: 139%
[4]
  viability, T/C: 144%
[5]
  viability, T/C: 135%
[6]
  viability, T/C: 72.3%
[7]
  viability, T/C: 120%
[8]
  viability, T/C: 153%
[9]
  viability, T/C: 140%
[10]
  viability, T/C: 146%
[11]
  viability, T/C: 118%
[12]
  viability, T/C: 90.6%
[13]
  viability, T/C: 147%
[14]
  viability, T/C: 110%
[15]
  viability, T/C: 132%
[16]
  viability, T/C: 130%
[17]
  viability, T/C: 127%
[18]
  viability, T/C: 78%
[19]
  viability, T/C: 124%
[20]
  viability, T/C: 109%
[21]
  viability, T/C: 123%
[22]
  viability, T/C: 134%
[23]
  viability, T/C: 132%
[24]
  viability, T/C: 95.4%
[25]
  viability, T/C: 124%
[26]
  viability, T/C: 124%
[27]
  viability, T/C: 150%
[28]
  viability, T/C: 145%
[29]
  viability, T/C: 118%
[30]
  viability, T/C: 86.9%
[31]
  viability, T/C: 115%
[32]
  viability, T/C: 127%
[33]
  viability, T/C: 144%
[34]
  viability, T/C: 161%
[35]
  viability, T/C: 113%
[36]
  viability, T/C: 92.9%

## O=C(Nc1ccc(O)c(NS(=O)(=O)c2ccc(F)cc2)c1)c1ccc(-c2ccccc2)cc1 + COC1C(OC(N)=O)C(O)C(Oc2ccc3c(O)c(NC(=O)c4ccc(O)c(CC=C(C)C)c4)c(=O)oc3c2C)OC1(C)C
Second compound 0.0316 µM
  IC50: > 10 µM
Second compound 0.1 µM
  IC50: > 10 µM
Second compound 0.316 µM
  IC50: > 10 µM
Second compound 1 µM
  IC50: > 10 µM
Second compound 3.16 µM
  IC50: > 10 µM
Second compound 10 µM
  IC50: > 10 µM
[1]
  viability, T/C: 120%
[2]
  viability, T/C: 117%
[3]
  viability, T/C: 109%
[4]
  viability, T/C: 113%
[5]
  viability, T/C: 133%
[6]
  viability, T/C: 94.5%
[7]
  viability, T/C: 122%
[8]
  viability, T/C: 125%
[9]
  viability, T/C: 117%
[10]
  viability, T/C: 127%
[11]
  viability, T/C: 127%
[12]
  viability, T/C: 97%
[13]
  viability, T/C: 115%
[14]
  viability, T/C: 108%
[15]
  viability, T/C: 100%
[16]
  viability, T/C: 108%
[17]
  viability, T/C: 112%
[18]
  viability, T/C: 94.5%
[19]
  viability, T/C: 116%
[20]
  viability, T/C: 99.6%
[21]
  viability, T/C: 118%
[22]
  viability, T/C: 115%
[23]
  viability, T/C: 120%
[24]
  viability, T/C: 122%
[25]
  viability, T/C: 98.2%
[26]
  viability, T/C: 118%
[27]
  viability, T/C: 106%
[28]
  viability, T/C: 114%
[29]
  viability, T/C: 99.8%
[30]
  viability, T/C: 104%
[31]
  viability, T/C: 127%
[32]
  viability, T/C: 95.3%
[33]
  viability, T/C: 94.9%
[34]
  viability, T/C: 127%
[35]
  viability, T/C: 104%
[36]
  viability, T/C: 93.5%

— PubChem BioAssay AID1963852 (Molecular Pharmacology Branch, DTP, NCI, 2024)
